Experimental data taken from PMC9141242, “Enhanced Soluble Expression of Linoleic Acid Isomerase by Coordinated Regulation of Promoter and Fusion Tag in Escherichia coli” (Foods, 2022).

Biological target: T1, MBP-PAI (Cutibacterium acnes, UniProt Q6A8X5)
T1 construct: gene PPA1039; PAI (about 50 kDa); synthesized gene in pET-24a(+), E. coli BL21(DE3)
T1 sequence (Q6A8X5 1-424): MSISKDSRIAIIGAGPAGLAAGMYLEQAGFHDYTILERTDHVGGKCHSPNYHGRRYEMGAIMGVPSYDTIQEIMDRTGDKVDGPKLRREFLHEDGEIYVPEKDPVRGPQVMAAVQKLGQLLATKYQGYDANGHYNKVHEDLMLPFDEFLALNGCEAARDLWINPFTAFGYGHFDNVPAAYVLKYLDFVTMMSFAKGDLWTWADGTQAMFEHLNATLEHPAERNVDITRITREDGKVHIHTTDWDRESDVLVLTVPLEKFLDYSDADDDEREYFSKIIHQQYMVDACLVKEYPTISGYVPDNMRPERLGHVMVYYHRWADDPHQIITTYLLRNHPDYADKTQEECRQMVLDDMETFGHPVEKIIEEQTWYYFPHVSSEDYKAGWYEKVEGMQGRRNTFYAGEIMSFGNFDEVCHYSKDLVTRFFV
Experiment: spectrophotometry at […] nm, CLA formation, Lineweaver-Burk
Type: biochemical
Conditions: optimal conditions (37 °C, pH 7.5, 1 mmol/L Tween-20); LA 71-1428 μM; MBP tag not cleaved; apparent

## CCCCC/C=C\C/C=C\CCCCCCCC(=O)O [linoleic acid]
  Km: 254 µM
